Data: ChEMBL document CHEMBL1154947, “Discovery of N-(5,6-diarylpyridin-2-yl)amide derivatives as potent and selective A(2B) adenosine receptor antagonists” (Bioorg Med Chem Lett, 2010)

Molecular target: Adenosine receptor A2a (Homo sapiens, UniProt P29274)
Assay: Displacement of [3H]ZM241385 from human adenosine A2A receptor expressed in human HeLa cells after 1 hr by scintillation proximity assay
Type: cell-based
Conditions: not given

Chain of Adenosine receptor A2a (P29274 whole entry): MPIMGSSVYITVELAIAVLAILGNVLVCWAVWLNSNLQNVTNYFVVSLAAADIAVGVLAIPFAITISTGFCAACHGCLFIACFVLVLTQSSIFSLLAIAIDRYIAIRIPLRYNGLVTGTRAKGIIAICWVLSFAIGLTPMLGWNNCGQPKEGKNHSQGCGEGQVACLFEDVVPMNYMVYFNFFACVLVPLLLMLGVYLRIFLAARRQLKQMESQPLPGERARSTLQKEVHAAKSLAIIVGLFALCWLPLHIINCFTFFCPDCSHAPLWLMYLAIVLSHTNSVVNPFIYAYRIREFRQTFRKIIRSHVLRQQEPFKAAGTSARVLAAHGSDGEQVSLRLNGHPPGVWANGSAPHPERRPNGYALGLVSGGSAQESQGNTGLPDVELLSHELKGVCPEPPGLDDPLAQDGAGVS

Row | Structure (SMILES) | Ki
1 | Cc1ccc(-c2nc(NC(=O)C3CC3)ccc2-c2ccncc2)o1 | 11 nM
2 | O=C(Nc1ccc(-c2ccncc2)c(-c2cnco2)n1)C1CC1 | 635 nM
3 | O=C(Nc1ccc(-c2ccncc2)c(-c2cccnc2)n1)C1CC1 | 1470 nM
4 | O=C(Nc1ccc(-c2ccncc2)c(-c2cocn2)n1)C1CC1 | 1370 nM
5 | O=C(Nc1ccc(C2N=NN=N2)c(-c2ccco2)n1)C1CC1 | 1640 nM
6 | O=C(Nc1ccc(-c2ccncc2)c(-n2cccn2)n1)C1CC1 | 1440 nM
7 | O=C(Nc1ccc(-c2ccncc2)c(-c2ncco2)n1)C1CC1 | 1360 nM
8 | O=C(Nc1ccc(-c2ccncc2)c(-c2ccccn2)n1)C1CC1 | 862 nM
9 | N#Cc1ccc(NC(=O)C2CC2)nc1-c1ccco1 | 12 nM

Second part, the compound after the results:

Row | Ki | Structure (SMILES)
10 | 35 nM | O=C(Nc1ccc(Br)c(-c2ccco2)n1)C1CC1
11 | 61 nM | O=C(Nc1ccc(-c2ccncc2)c(-c2ccccc2F)n1)C1CC1
12 | 147 nM | O=C(Nc1ccc(-c2ccncc2Cl)c(-c2ccco2)n1)C1CC1
13 | 57 nM | O=C(Nc1ccc(-c2ccncc2)c(-c2cccc(F)c2)n1)C1CC1
14 | 286 nM | CC(=O)Nc1ccc(-c2ccncc2)c(-c2cccc(F)c2)n1
15 | 163 nM | O=C(Nc1ccc(-c2ccncc2)c(-c2ccncc2)n1)C1CC1

Molecular target: T1, Adenosine receptor A3 (Homo sapiens, UniProt P0DMS8)
T1 sequence (P0DMS8 whole entry): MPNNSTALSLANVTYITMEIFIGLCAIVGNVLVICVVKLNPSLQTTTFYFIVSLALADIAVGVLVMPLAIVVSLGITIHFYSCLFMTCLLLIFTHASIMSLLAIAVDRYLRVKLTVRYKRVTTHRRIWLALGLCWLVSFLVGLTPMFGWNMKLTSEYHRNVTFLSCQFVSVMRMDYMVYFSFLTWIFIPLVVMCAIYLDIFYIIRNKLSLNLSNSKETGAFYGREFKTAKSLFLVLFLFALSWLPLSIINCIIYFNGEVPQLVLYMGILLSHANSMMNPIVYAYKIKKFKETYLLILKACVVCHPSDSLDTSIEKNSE
Assay: Displacement of [3H]NECA from human adenosine A3 receptor expressed in human HeLa cells after 3 hrs by filtration binding assay
Type: cell-based
Conditions: not given

Row | Structure (SMILES) | Ki
16 | Cc1ccc(-c2nc(NC(=O)C3CC3)ccc2-c2ccncc2)o1 | 189 nM
17 | N#Cc1ccc(NC(=O)C2CC2)nc1-c1ccco1 | 326 nM

Second part, the compound after the results:

Row | Ki | Structure (SMILES)
18 | 617 nM | O=C(Nc1ccc(Br)c(-c2ccco2)n1)C1CC1
19 | 817 nM | O=C(Nc1ccc(-c2ccncc2)c(-c2ccccc2F)n1)C1CC1
20 | 1870 nM | O=C(Nc1ccc(-c2ccncc2Cl)c(-c2ccco2)n1)C1CC1
21 | 715 nM | O=C(Nc1ccc(-c2ccncc2)c(-c2cccc(F)c2)n1)C1CC1
22 | 471 nM | CC(=O)Nc1ccc(-c2ccncc2)c(-c2cccc(F)c2)n1

Molecular target: T2, Adenosine receptor A2b (Homo sapiens) (UniProt P29275)
T2 sequence (whole entry): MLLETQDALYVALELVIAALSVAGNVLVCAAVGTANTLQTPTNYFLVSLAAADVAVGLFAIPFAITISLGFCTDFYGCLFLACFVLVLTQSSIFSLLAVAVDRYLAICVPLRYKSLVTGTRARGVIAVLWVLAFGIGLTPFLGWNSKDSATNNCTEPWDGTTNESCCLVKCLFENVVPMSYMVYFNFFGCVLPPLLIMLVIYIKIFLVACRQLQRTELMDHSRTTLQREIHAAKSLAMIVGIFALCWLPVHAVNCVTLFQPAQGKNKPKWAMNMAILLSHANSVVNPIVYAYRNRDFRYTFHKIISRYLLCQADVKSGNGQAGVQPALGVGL
Assay: Inhibition of [3H]DPCPX binding to human adenosine A2B receptor expressed in HEK293 cells at 1 uM after 60 mins by filtration binding assay
Type: cell-based
Conditions: not given

Row | Structure (SMILES) | inhibition
23 | O=C(Nc1ccc(C2N=NN=N2)c(-c2ccco2)n1)C1CC1 | 23%

Molecular target: T3, Adenosine receptor A1 (Homo sapiens) (UniProt P30542)
T3 sequence (whole entry): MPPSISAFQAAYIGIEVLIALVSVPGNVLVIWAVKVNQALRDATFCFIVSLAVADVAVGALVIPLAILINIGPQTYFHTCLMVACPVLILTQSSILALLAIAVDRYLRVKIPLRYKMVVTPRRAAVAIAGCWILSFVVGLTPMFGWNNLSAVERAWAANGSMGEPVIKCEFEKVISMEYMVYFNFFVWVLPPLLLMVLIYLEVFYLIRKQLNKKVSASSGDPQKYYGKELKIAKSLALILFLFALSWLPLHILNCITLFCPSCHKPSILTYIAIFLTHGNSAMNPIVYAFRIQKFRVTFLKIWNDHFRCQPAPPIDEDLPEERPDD
Assay: Inhibition of [3H]DPCPX binding to human adenosine A1 receptor expressed in CHO cells at 1 uM after 90 mins by filtration binding assay
Type: cell-based
Conditions: not given

Row | inhibition | Structure (SMILES)
24 | 21% | O=C(Nc1ccc(-c2ccncc2)c(-c2cccnc2)n1)C1CC1
25 | 1% | O=C(Nc1ccc(-c2ccncc2)c(-c2cocn2)n1)C1CC1
26 | 22% | O=C(Nc1ccc(-c2ccncc2)c(-n2cccn2)n1)C1CC1

Row | Structure (SMILES) | inhibition
27 | O=C(Nc1ccc(C2N=NN=N2)c(-c2ccco2)n1)C1CC1 | 1%

Molecular target: T4, Adenosine receptor A3 (Homo sapiens) (UniProt P0DMS8)
T4 sequence (whole entry): T1 sequence (P0DMS8 whole entry)
Assay: Inhibition of [3H]NECA binding to human adenosine A3 receptor expressed in human HeLa cells at 1 uM after 3 hrs by filtration binding assay
Type: cell-based
Conditions: not given

Row | inhibition | Structure (SMILES)
28 | 5% | O=C(Nc1ccc(-c2ccncc2)c(-c2cnco2)n1)C1CC1
29 | 10% | O=C(Nc1ccc(-c2ccncc2)c(-c2cccnc2)n1)C1CC1
30 | 12% | O=C(Nc1ccc(-c2ccncc2)c(-c2cocn2)n1)C1CC1
31 | 2% | O=C(Nc1ccc(-c2ccncc2)c(-n2cccn2)n1)C1CC1
32 | 22% | O=C(Nc1ccc(-c2ccncc2)c(-c2ncco2)n1)C1CC1
33 | 2% | O=C(Nc1ccc(-c2ccncc2)c(-c2ccccn2)n1)C1CC1
34 | 6% | O=C(Nc1ccc(-c2ccncc2)c(-c2ccncc2)n1)C1CC1

Row | Structure (SMILES) | inhibition
35 | O=C(Nc1ccc(C2N=NN=N2)c(-c2ccco2)n1)C1CC1 | 8%

Tested on: not listed separately
Assay: Metabolic stability in rat liver microsomes assessed as turnover at 5 uM after 30 mins in presence of NADPH
Type: ADME, Microsome
Conditions: read-out: Activity

Row | metabolised at 0.5 h, 5 µM | Structure (SMILES)
36 | 27% | O=C(Nc1ccc(-c2ccncc2)c(-c2ncco2)n1)C1CC1

Tested on: not listed separately
Assay: Metabolic stability in human liver microsomes assessed as turnover at 5 uM after 30 mins in presence of NADPH
Type: ADME, Microsome
Conditions: read-out: Activity

Row | metabolised at 0.5 h, 5 µM | Structure (SMILES)
37 | 14% | O=C(Nc1ccc(-c2ccncc2)c(-c2ncco2)n1)C1CC1
38 | 0% | O=C(Nc1ccc(-c2ccncc2)c(-c2ccccn2)n1)C1CC1

Tested on: not listed separately
Assay: Metabolic stability in rat liver microsomes assessed as turnover at 5 uM after 30 mins in absence of NADPH
Type: ADME, Microsome
Conditions: read-out: Activity

Row | metabolised at 0.5 h, 5 µM | Structure (SMILES)
39 | 100% | O=C(Nc1ccc(-c2ccncc2)c(-c2ccccc2F)n1)C1CC1
40 | 12% | O=C(Nc1ccc(-c2ccncc2)c(-c2ccccn2)n1)C1CC1

Tested on: not listed separately
Assay: Terminal half life in rat at 1 mg/kg, iv
Type: ADME, organism-based
Set-up: dose 1 mg/kg, route intravenous
Conditions: in vivo, read-out: beta t1/2 (converted)

Row | half-life | Structure (SMILES)
41 | 54 min | O=C(Nc1ccc(-c2ccncc2)c(-c2ncco2)n1)C1CC1
42 | 30 min | O=C(Nc1ccc(-c2ccncc2)c(-c2ccccn2)n1)C1CC1

Tested on: not listed separately
Assay: Cmax in rat at 1 mg/kg, iv
Type: ADME, organism-based
Set-up: dose 1 mg/kg, route intravenous
Conditions: in vivo

Row | Cmax | Structure (SMILES)
43 | 761 ng/mL | O=C(Nc1ccc(-c2ccncc2)c(-c2ncco2)n1)C1CC1
44 | 822 ng/mL | O=C(Nc1ccc(-c2ccncc2)c(-c2ccccn2)n1)C1CC1

Tested on: not listed separately
Assay: Clearance in rat at 1 mg/kg, iv
Type: ADME, organism-based
Set-up: dose 1 mg/kg, route intravenous
Conditions: in vivo

Row | clearance | Structure (SMILES)
45 | 31.7 mL/min/kg | O=C(Nc1ccc(-c2ccncc2)c(-c2ncco2)n1)C1CC1
46 | 35 mL/min/kg | O=C(Nc1ccc(-c2ccncc2)c(-c2ccccn2)n1)C1CC1

Tested on: not listed separately
Assay: AUC (0 to infinity) in rat at 1 mg/kg, iv
Type: ADME, organism-based
Set-up: time infinity, dose 1 mg/kg, route intravenous
Conditions: plasma

Row | AUC(0-inf) | Structure (SMILES)
47 | 533 ng·h/mL | O=C(Nc1ccc(-c2ccncc2)c(-c2ncco2)n1)C1CC1
48 | 485 ng·h/mL | O=C(Nc1ccc(-c2ccncc2)c(-c2ccccn2)n1)C1CC1

Tested on: not listed separately
Assay: Volume of distribution at steady state in rat at 1 mg/kg, iv
Type: ADME, organism-based
Set-up: dose 1 mg/kg, route intravenous
Conditions: in vivo, read-out: Vdss

Row | Vd | Structure (SMILES)
49 | 1.6 L/kg | O=C(Nc1ccc(-c2ccncc2)c(-c2ncco2)n1)C1CC1
50 | 1 L/kg | O=C(Nc1ccc(-c2ccncc2)c(-c2ccccn2)n1)C1CC1

Tested on: not listed separately
Assay: Metabolic stability in human liver microsomes assessed as turnover at 5 uM after 30 mins in absence of NADPH
Type: ADME, Microsome
Conditions: read-out: Activity

Row | metabolised at 0.5 h, 5 µM | Structure (SMILES)
51 | 86% | O=C(Nc1ccc(-c2ccncc2)c(-c2ccccc2F)n1)C1CC1

Molecular target: T5, Adenosine receptor A2b (Homo sapiens, UniProt P29275)
T5 sequence (P29275 whole entry): T2 sequence (whole entry)
Assay: biochemical
Conditions: not given

Row | Structure (SMILES) | Ki
52 | Cc1ccc(-c2nc(NC(=O)C3CC3)ccc2-c2ccncc2)o1 | 5 nM
53 | O=C(Nc1ccc(-c2ccncc2)c(-c2cnco2)n1)C1CC1 | 30 nM
54 | O=C(Nc1ccc(-c2ccncc2)c(-c2cccnc2)n1)C1CC1 | 33 nM
55 | O=C(Nc1ccc(-c2ccncc2)c(-c2cocn2)n1)C1CC1 | 134 nM
56 | O=C(Nc1ccc(-c2ccncc2)c(-n2cccn2)n1)C1CC1 | 72 nM
57 | O=C(Nc1ccc(-c2ccncc2)c(-c2ncco2)n1)C1CC1 | 32 nM
58 | O=C(Nc1ccc(-c2ccncc2)c(-c2ccccn2)n1)C1CC1 | 47 nM
59 | N#Cc1ccc(NC(=O)C2CC2)nc1-c1ccco1 | 41 nM

Next, values leading:

Row | Ki | Structure (SMILES)
60 | 28 nM | O=C(Nc1ccc(Br)c(-c2ccco2)n1)C1CC1
61 | 2 nM | O=C(Nc1ccc(-c2ccncc2)c(-c2ccccc2F)n1)C1CC1
62 | 5 nM | O=C(Nc1ccc(-c2ccncc2Cl)c(-c2ccco2)n1)C1CC1
63 | 2 nM | O=C(Nc1ccc(-c2ccncc2)c(-c2cccc(F)c2)n1)C1CC1
64 | 30 nM | CC(=O)Nc1ccc(-c2ccncc2)c(-c2cccc(F)c2)n1
65 | 14 nM | O=C(Nc1ccc(-c2ccncc2)c(-c2ccncc2)n1)C1CC1

Molecular target: T6, Adenosine receptor A1 (Homo sapiens, UniProt P30542)
T6 sequence (P30542 whole entry): T3 sequence (whole entry)
Assay: biochemical
Conditions: not given

Row | Structure (SMILES) | Ki
66 | Cc1ccc(-c2nc(NC(=O)C3CC3)ccc2-c2ccncc2)o1 | 25 nM
67 | O=C(Nc1ccc(-c2ccncc2)c(-c2cnco2)n1)C1CC1 | 635 nM
68 | O=C(Nc1ccc(-c2ccncc2)c(-c2ncco2)n1)C1CC1 | 702 nM
69 | O=C(Nc1ccc(-c2ccncc2)c(-c2ccccn2)n1)C1CC1 | 940 nM
70 | N#Cc1ccc(NC(=O)C2CC2)nc1-c1ccco1 | 289 nM

Continued, values first:

Row | Ki | Structure (SMILES)
71 | 285 nM | O=C(Nc1ccc(Br)c(-c2ccco2)n1)C1CC1
72 | 123 nM | O=C(Nc1ccc(-c2ccncc2)c(-c2ccccc2F)n1)C1CC1
73 | 250 nM | O=C(Nc1ccc(-c2ccncc2Cl)c(-c2ccco2)n1)C1CC1
74 | 14 nM | O=C(Nc1ccc(-c2ccncc2)c(-c2cccc(F)c2)n1)C1CC1
75 | 58 nM | CC(=O)Nc1ccc(-c2ccncc2)c(-c2cccc(F)c2)n1
76 | 338 nM | O=C(Nc1ccc(-c2ccncc2)c(-c2ccncc2)n1)C1CC1
